Reference: article PMC10799042 (Scientific Reports, 2024)

Legend:
Catalase = Catalase assay in brain homogenate; type: in vivo; details: brain THS of mice, scopolamine 1.5 mg/kg i.p.; donepezil and compounds 2 mg/kg p.o.; mean ± SD
Procedure: (§1) The animals were properly acclimated before being randomly placed into 12 groups (I-XII), with six animals in each group. […] Following the delivery of the dose to the mouse, the rodent's behaviour was assessed using the traditional Morris water maze (MWM) technique.
(§2) After five days of behavioral assessment, the mice's brains were removed and homogenized (blended) in chilled phosphate buffer (pH 7.4) at a concentration of 10% w/v (weight per volume). The homogenates were then centrifuged (spun at high speed) for 20 min at 4 °C to separate the supernatant (liquid) from the pellet (solid material). The supernatant was then collected to measure biological substances.
Employing the methodology of Luck et al., catalase activity was quantified. The sample contained H2O2 (1.0 mL, 0.019 M), phosphate buffer (1.95 mL, 0.05 M, pH 7.0), and THS (0.05 mL). The optical density was computed at a wavelength of 240 nm. The findings were shown as μM H2O2 decomposition/min/mg protein[13].

[1] = test system: scopolamine-induced memory impairment and learning disability in mice; assay: Morris water maze, scopolamine-induced memory impairment; type: in vivo, Swiss albino male mice; details: for escape latency versus scopolamine-treated mice (in words) / improvement of cognitive defects (in words): 2 mg/kg; for escape latency versus scopolamine-treated mice (in words): day 1 to 5; for Escape latency, 1st Day: day 1; for Escape latency, 2nd Day: day 2; for Escape latency, 3rd Day: day 3; for Escape latency, 4th Day: day 4; for Escape latency, 5th Day: day 5; for improvement of cognitive defects (in words): compared with donepezil 2 mg/kg
Procedure: Swiss albino male mice weighing 25–30 g were purchased from LLRUVAS in Hisar, Haryana, India. […] The housing, care, and handling of the animals were done per CPCSEA requirements. The animals were exposed to the laboratory setting for seven days before the experiment.
as §1
Five days of continuous animal evaluations were conducted using the MWM model. […] The tank was placed in a dim laboratory, and using wires anchored at the pool's edge at an angle to one another, it was divided into four equal pieces (P1–P4). A stage in the targeted area (P4) of the pool with an upper face (6 × 6 cm^2) immersed in the water (1.0 cm below the surface). The location of the stage stayed the same throughout the evaluation. The animals were subjected to water pools throughout the evaluation by turning their heads towards the wall from any of the four segments, namely P1-P4, and being given 90 s to recognise the stage placed in a pool. If the animal couldn't get to the stage in 90 s, they were gently guided onto the stage under supervision. On the sixth day, one of the parameters used to determine if cognitive impairments have recovered was the time it took the mice to travel from the initial portion to locate the hidden stage in the intended part (escape latency). […]

malondialdehyde (MDA) = assay: Lipid peroxidation (LPO) assay, MDA in brain homogenate; type: in vivo; details: brain THS of mice, scopolamine 1.5 mg/kg i.p.; donepezil and compounds 2 mg/kg p.o.; mean ± SD
Procedure: as §1, §2
The amount of malondialdehyde (MDA), a marker of lipid peroxidation (LPO), was measured using a method described by Wills[10]. Tris–HCl buffer and THS were mixed and incubated at 37 °C for 2 h with 10% trichloroacetic acid. After incubation, the mixture was centrifuged again (at 1000 rpm for 10 min). […] After cooling, 1.0 mL of double-distilled water was added, and the absorbance was measured at 532 nm.

nitrite = assay: Nitrite assay (Greiss reagent) in brain homogenate; type: in vivo; details: brain THS of mice, scopolamine 1.5 mg/kg i.p.; donepezil and compounds 2 mg/kg p.o.; mean ± SD
Procedure: as §1, §2
The amount of nitric oxide in THS was calculated using Greiss' reagent, a mixture of chemicals that reacts with nitric oxide to produce a colored product. The absorbance of the colored product was computed at 540 nm and the concentration of nitrite was determined using a standard curve of known nitrite concentrations.

[2] = test system: Reduced glutathione (GSH); assay: Reduced glutathione (GSH) assay in brain homogenate; type: in vivo; details: brain THS of mice, scopolamine 1.5 mg/kg i.p.; donepezil and compounds 2 mg/kg p.o.; mean ± SD
Procedure: as §1, §2
The method described by Jollow et al. was used to measure glutathione (GSH) levels. First, 1.0 mL of 4% sulfosalicylic acid was added to 1.0 mL of tissue homogenate to precipitate the GSH. The mixture was then incubated at 4 °C for 1 h and centrifuged at 1200 rpm for 10 min at 4 °C. The supernatant was collected and diluted to a final volume of 3.0 mL with phosphate buffer and Ellman's reagent. […]

[3] = target: T1, Acetylcholinesterase (AChE) (Mus musculus, UniProt P21836); details: brain THS of mice, scopolamine 1.5 mg/kg i.p.; donepezil and compounds 2 mg/kg p.o.; mean ± SD
T1 sequence (P21836 32-614): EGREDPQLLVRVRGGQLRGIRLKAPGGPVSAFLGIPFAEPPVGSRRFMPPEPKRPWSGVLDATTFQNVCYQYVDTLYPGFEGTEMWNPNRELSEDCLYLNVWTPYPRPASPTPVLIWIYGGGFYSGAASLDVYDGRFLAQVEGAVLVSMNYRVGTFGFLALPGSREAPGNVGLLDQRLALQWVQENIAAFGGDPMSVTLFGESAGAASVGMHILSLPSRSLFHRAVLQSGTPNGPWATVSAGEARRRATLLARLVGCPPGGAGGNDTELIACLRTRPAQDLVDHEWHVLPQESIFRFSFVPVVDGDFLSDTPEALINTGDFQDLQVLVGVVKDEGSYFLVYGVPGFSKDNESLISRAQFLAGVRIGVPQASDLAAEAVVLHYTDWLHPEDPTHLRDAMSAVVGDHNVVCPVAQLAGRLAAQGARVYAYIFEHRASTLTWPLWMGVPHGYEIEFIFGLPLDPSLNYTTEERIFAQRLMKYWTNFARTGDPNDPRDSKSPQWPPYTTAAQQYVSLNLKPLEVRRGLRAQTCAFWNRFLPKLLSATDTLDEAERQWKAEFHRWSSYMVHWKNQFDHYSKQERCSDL
Procedure: as §1, §2
Employing Ellman et al., methodology, AChE levels were quantified in tissue homogenate supernatant (THS) to evaluate cholinergic abnormalities.

[4] = test system: Superoxide dismutase (SOD); assay: Superoxide dismutase (SOD) assay in brain homogenate; type: in vivo; details: brain THS of mice, scopolamine 1.5 mg/kg i.p.; donepezil and compounds 2 mg/kg p.o.; mean ± SD
Procedure: as §1, §2
The samples contained EDTA, sodium carbonate, and NBT, and the assay was performed using Kono's method. Each sample tube contained 2.0 mL of this mixture, as well as THS and hydroxylamine. The absorbance of the mixture was measured at 560 nm every 30 or 60 s for 2 min to track changes in absorbance.

[5] = mice, scopolamine 1.5 mg/kg i.p., donepezil and compounds 2 mg/kg p.o. with scopolamine, mean ± SD

Row | Molecule | Catalase assay, Catalase activity (Catalase) [min⁻¹] | escape latency versus scopolamine-treated mice (in words) [1] | Escape latency, 1st Day [1, 5] [s] | Escape latency, 2nd Day [1, 5] [s] | Escape latency, 3rd Day [1, 5] [s] | Escape latency, 4th Day [1, 5] [s] | Escape latency, 5th Day [1, 5] [s] | LPO assay, MDA levels (malondialdehyde (MDA)) | Nitrite assay, nitrite conc. (nitrite) [μM/mg protein] | GSH assay, μmol of GSH/mg Protein [2] | μM of AChE/min/mg protein [3] | SOD assay, SOD units/mg protein [4] [SOD units/mg protein] | improvement of cognitive defects (in words) [1] | TSTQ (time spent in the target quadrant) ([1]; mice, scopolamine 1.5 mg/kg i.p., donepezil and compounds 2 mg/kg p.o. with scopolamine, probe trial, mean ± SD) [s]
1 | 2-(1-benzylpiperidin-4-yl)-4-chloro-6,7-dimethoxyquinoline [Compound 15] | 5.35 ± 0.03 | significantly reduced escape latency | 80.5 ± 0.86 | 49.83 ± 0.75 | 29.16 ± 3.07 | 11.5 ± 1.04 | 3.83 ± 1.34 | 8.54 ± 0.02 nM/mg of tissue | 14.66 ± 0.04 | 0.09 ± 0.003 μmol of GSH/mg Protein | 0.02 ± 0.02 μM of AChE/min/mg protein | 3.14 ± 0.03 |  | 
2 | 2-(1-benzylpiperidin-4-yl)-6,7-dimethoxy-4-(4-(trifluoromethyl)phenyl)quinoline [Compound 19] | 5.17 ± 0.05 | significantly reduced escape latency | 54.83 ± 1.47 | 44.83 ± 2.71 | 21.33 ± 2.68 | 13.16 ± 2.31 | 3.66 ± 0.94 | 9.25 ± 0.02 nM/mg of tissue | 11.31 ± 0.03 | 0.09 ± 0.005 μmol of GSH/mg Protein | 0.01 ± 0.02 μM of AChE/min/mg protein | 3.09 ± 0.03 |  | 
3 | 2-(1-benzylpiperidin-4-yl)-6,7-dimethoxy-4-(4-methoxyphenyl)quinoline [Compound 18] | 5.53 ± 0.01 | significantly reduced escape latency |  | 44.83 ± 3.125 | 24.66 ± 1.24 | 13.83 ± 2.63 | 3.33 ± 1.37 | 8.52 ± 0.02 nM/mg of tissue | 10.51 ± 0.03 | 0.11 ± 0.001 μmol of GSH/mg Protein | 0.01 ± 0.01 μM of AChE/min/mg protein | 4.08 ± 0.02 | most potent | 
4 | 2-(2-(1-benzylpiperidin-4-yl)ethyl)-4-chloro-6,7-dimethoxyquinoline [Compound 17] | 4.76 ± 0.02 | significantly reduced escape latency | 81 ± 0.89 | 32.83 ± 1.83 | 22.66 ± 1.79 | 12.33 ± 2.25 | 4.16 ± 0.74 | 8.73 ± 0.05 nM/mg of tissue | 12.57 ± 0.05 | 0.11 ± 0.006 μmol of GSH/mg Protein | 0.02 ± 0.01 μM of AChE/min/mg protein | 3.09 ± 0.02 |  | 
5 | 2-((1-benzylpiperidin-4-yl)methyl)-4-chloro-6,7-dimethoxyquinoline [Compound 16] | 4.66 ± 0.04 | significantly reduced escape latency | 76 ± 3.3 | 30.8 ± 0.75 | 21 ± 0.81 | 16 ± 1.54 | 5.33 ± 1.24 | 8.52 ± 0.05 nM/mg of tissue | 11.74 ± 0.03 | 0.11 ± 0.002 μmol of GSH/mg Protein | 0.01 ± 0.01 μM of AChE/min/mg protein | 3.07 ± 0.02 |  | 
6 | 6-chloro-N-(1-(1-(3,4-dimethoxybenzyl)-2-oxopyrrolidin-3-yl)piperidin-4-yl)pyridine-3-sulfonamide [Compound 9] | 6.23 ± 0.02 | significantly reduced escape latency | 80.5 ± 0.84 | 40.83 ± 0.98 | 23.5 ± 2.92 | 15.83 ± 3.37 | 2.66 ± 0.68 | 8.48 ± 0.02 nM/mg of tissue | 10.42 ± 0.04 | 0.11 ± 0.002 μmol of GSH/mg Protein | 0.01 ± 0.01 μM of AChE/min/mg protein | 4.09 ± 0.02 | most potent | 
7 | CN1[C@@H]2C[C@@H](OC(=O)[C@H](CO)c3ccccc3)C[C@H]1[C@@H]1O[C@@H]12 [Scopolamine, scopolamine, reference compound] |  |  | 78.65 ± 0.82 | 80.64 ± 3.91 | 82.82 ± 3.79 | 84.15 ± 3.31 | 86.25 ± 3.31 |  |  |  |  |  |  | 18.55 ± 0.88
8 | N-(1-benzylpiperidin-4-yl)-2-(2-oxoindolin-3-yl)acetamide [Compound 23] |  | significantly reduced escape latency | 55.33 ± 1.96 | 45.16 ± 0.75 | 35.33 ± 2.56 | 11.83 ± 1.94 | 4.16 ± 1.067 |  |  |  | 0.01 ± 0.04 μM of AChE/min/mg protein |  |  | 
